target: T1, hNK2 receptor (Homo sapiens, UniProt P21452); experiment: Radio-ligand ([125I]-NKA) receptor binding inhibitory activity using membrane fraction of hNK2 receptor-expressing CHO cell; settings: membrane fraction of hNK2 receptor-expressing CHO cells, 25° C., 30 min
T1 construct: host or cells: CHO cells
T1 sequence (P21452 1-398): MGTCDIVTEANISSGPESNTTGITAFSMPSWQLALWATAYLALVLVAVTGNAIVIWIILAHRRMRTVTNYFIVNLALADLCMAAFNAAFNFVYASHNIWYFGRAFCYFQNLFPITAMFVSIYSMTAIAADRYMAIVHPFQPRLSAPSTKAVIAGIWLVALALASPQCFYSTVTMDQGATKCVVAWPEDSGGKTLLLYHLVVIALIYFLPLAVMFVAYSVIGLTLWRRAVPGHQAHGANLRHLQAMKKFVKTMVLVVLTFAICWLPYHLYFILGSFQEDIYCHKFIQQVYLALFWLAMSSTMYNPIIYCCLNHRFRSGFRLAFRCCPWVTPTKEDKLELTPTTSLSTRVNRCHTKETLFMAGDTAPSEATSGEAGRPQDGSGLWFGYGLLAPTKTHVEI
Summary of the method: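 Inhibition of [125I]-NKA binding ([…] solution added) measured after 30 min at 25 °C using hNK2-CHO membrane fraction (20 μg/mL suspension) in pH 7.4 Tris buffer containing MnCl2, BSA and protease inhibitors. Filter-bound counts read; activity calculated as fraction of specific binding, non-specific defined with unlabeled NKA.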

IC50 | SMILES
< 1 nM | NC(=O)c1ccc(C(=O)N[C@@H]2CCCC[C@@H]2C(=O)N2CC[C@@H]3[C@H](c4ccc[nH]4)Nc4ccccc4[C@@H]32)cc1 [Example 323, N-((1R,2S)-2-{[(3aR,4R,9bR)-4-(1H-Pyrrol-2-yl)-2,3,3a,4,5,9b-hexahydro-1H-pyrrolo[3,2-c]quinolin-1-yl]carbonyl}cyclohexyl)terephthalamide]
< 1 nM | COC[C@@H]1Nc2ccccc2[C@H]2[C@@H]1CCN2C(=O)[C@H]1CCCC[C@H]1NC(=O)c1ccc(N(C)C)cc1 [Example 213, 4-(Dimethylamino)-N-((1R,2S)-2-{[(3aR,4R,9bR)-4-(methoxymethyl)-2,3,3a,4,5,9b-hexahydro-1H-pyrrolo[3,2-c]quinolin-1-yl]carbonyl}cyclohexyl)benzamide]
< 1 nM | CCC[C@@H]1Nc2ccccc2[C@H]2[C@@H]1CCN2C(=O)[C@H]1CCCC[C@H]1NC(=O)Nc1ccc(F)cc1 [Example 197, N-(4-Fluorophenyl)-N′-((1R,2S)-2-{[(3aR,4S,9bR)-4-propyl-2,3,3a,4,5,9b-hexahydro-1H-pyrrolo[3,2-c]quinolin-1-yl]carbonyl}cyclohexyl)urea]
< 10 nM | CC(=O)N1CCC(NC(=O)N[C@@H]2CCCC[C@@H]2C(=O)N2CC[C@@H]3[C@H](c4ccccc4)Nc4ccccc4[C@@H]32)CC1 [Example 175, N-(1-Acetylpiperidin-4-yl)-N′-((1R,2S)-2-{[(3aR,4R,9bR)-4-phenyl-2,3,3a,4,5,9b-hexahydro-1H-pyrrolo[3,2-c]quinolin-1-yl]carbonyl}cyclohexyl)urea]
< 10 nM | O=C(Nc1ccc(Cl)cc1)N[C@@H]1CCCC[C@@H]1C(=O)N1CC[C@@H]2[C@H](c3ccccc3)Nc3ccccc3[C@@H]21 [Example 136, N-(4-Chlorophenyl)-N′-((1R,2S)-2-{[(3aR,4R,9bR)-4-phenyl-2,3,3a,4,5,9b-hexahydro-1H-pyrrolo[3,2-c]quinolin-1-yl]carbonyl}cyclohexyl)urea]
< 10 nM | COC[C@@H]1Nc2ccccc2[C@H]2[C@@H]1CCN2C(=O)[C@H]1CCCC[C@H]1NC(=O)c1c[nH]c2ccccc12 [Example 244, N-((1R,2S)-2-{[(3aR,4R,9bR)-4-(Methoxymethyl)-2,3,3a,4,5,9b-hexahydro-1H-pyrrolo[3,2-c]quinolin-1-yl]carbonyl}cyclohexyl)-1H-indole-3-carboxamide]
< 10 nM | O=C(N[C@@H]1CCCC[C@@H]1C(=O)N1CC[C@@H]2[C@H](c3ccccc3)Nc3cc(Cl)ccc3[C@@H]21)c1ccccc1 (relative stereo) [Example 7, N-((1R,2S)-2-{[(3aR*,4R*,9bR*)-7-Chloro-4-phenyl-2,3,3a,4,5,9b-hexahydro-1H-pyrrolo[3,2-c]quinolin-1-yl]carbonyl}cyclohexyl)benzamide]
< 10 nM | O=C(N[C@@H]1CCCC[C@@H]1C(=O)N1CC[C@@H]2[C@H](c3ccccc3)Nc3ccccc3[C@@H]21)c1ccccc1 [Example 58, N-{(1R,2S)-2-[((3aR,4R,9bR)-4-Phenyl-2,3,3a,4,5,9b-hexahydro-1H-pyrrolo[3,2-c]quinolin-1-yl)carbonyl]cyclohexyl}benzamide]
< 10 nM | O=C(/C=C/c1c[nH]cn1)N[C@@H]1CCCC[C@@H]1C(=O)N1CC[C@@H]2[C@H](c3ccccc3)Nc3ccccc3[C@@H]21 [Example 128, (2E)-3-(1H-Imidazol-4-yl)-N-((1R,2S)-2-{[(3aR,4R,9bR)-4-phenyl-2,3,3a,4,5,9b-hexahydro-1H-pyrrolo[3,2-c]quinolin-1-yl]carbonyl}cyclohexyl)acrylamide]
< 1 nM | COC[C@@H]1Nc2ccccc2[C@H]2[C@@H]1CCN2C(=O)[C@H]1CCCC[C@H]1NC(=O)Nc1ccc(-n2ccnc2)cc1 [Example 277, N-[4-(1H-Imidazol-1-yl)phenyl]-N′-((1R,2S)-2-{[(3aR,4R,9bR)-4-(methoxymethyl)-2,3,3a,4,5,9b-hexahydro-1H-pyrrolo[3,2-c]quinolin-1-yl]carbonyl}cyclohexyl)urea]
< 1 nM | O=C(Nc1ccccc1)N[C@@H]1CCCC[C@@H]1C(=O)N1CC[C@@H]2[C@H](c3ncc[nH]3)Nc3ccccc3[C@@H]21 [Example 293, N-((1R,25)-2-{[(3aR,4R,9bR)-4-(1H-Imidazol-2-yl)-2,3,3a,4,5,9b-hexahydro-1H-pyrrolo[3,2-c]quinolin-1-yl]carbonyl}cyclohexyl)-N′-phenylurea]
< 1 nM | O=C(N[C@@H]1CCCC[C@@H]1C(=O)N1CC[C@@H]2[C@H](c3ncc[nH]3)Nc3ccccc3[C@@H]21)c1ccc2[nH]nnc2c1 [Example 310, N-((1R,2S)-2-{[(3aR,4R,9bR)-4-(1H-Imidazol-2-yl)-2,3,3a,4,5,9b-hexahydro-1H-pyrrolo[3,2-c]quinolin-1-yl]carbonyl}cyclohexyl)-1H-1,2,3-benzotriazole-5-carboxamide]
< 10 nM | O=C(N[C@@H]1CCCC[C@@H]1C(=O)N1CC[C@@H]2[C@H](c3ccccc3)Nc3ccccc3[C@@H]21)c1ccc(C(F)(F)F)cc1 [Example 87, N-((1R,2S)-2-{[(3aR,4R,9bR)-4-Phenyl-2,3,3a,4,5,9b-hexahydro-1H-pyrrolo[3,2-c]quinolin-1-yl]carbonyl}cyclohexyl)-4-(trifluoromethyl)benzamide]
< 10 nM | C[C@]12CCN(C(=O)[C@H]3CCCC[C@H]3NC(=O)c3ccccc3)[C@H]1c1ccccc1N[C@H]2c1ccccc1 [Example 83, N-((1R,2S)-2-{[(3aR,4S,9bR)-3a-Methyl-4-phenyl-2,3,3a,4,5,9b-hexahydro-1H-pyrrolo[3,2-c]quinolin-1-yl]carbonyl}cyclohexyl)benzamide]
< 10 nM | Cc1ccccc1C(=O)N[C@@H]1CCCC[C@@H]1C(=O)N1CC[C@@H]2[C@H](c3ccccc3)Nc3ccccc3[C@@H]21 [Example 97, 2-Methyl-N-((1R,2S)-2-{[(3aR,4R,9bR)-4-phenyl-2,3,3a,4,5,9b-hexahydro-1H-pyrrolo[3,2-c]quinolin-1-yl]carbonyl}cyclohexyl)benzamide]
< 10 nM | O=C(N[C@@H]1CCCC[C@@H]1C(=O)N1CC[C@@H]2[C@H](c3ccn[nH]3)Nc3ccccc3[C@@H]21)c1ccccc1 (relative stereo) [Example 56, N-((1R,2S)-2-{[(3aR*,4R*,9bR*)-4-(1H-Pyrazol-5-yl]-2,3,3a,4,5,9b-hexahydro-1H-pyrrolo[3,2-c]quinolin-1-yl]carbonyl}cyclohexyl)benzamide]
< 10 nM | O=C(N[C@@H]1CCCC[C@@H]1C(=O)N1CC[C@@H]2[C@H](C3CC3)Nc3ccccc3[C@@H]21)c1ccccc1 [Example 59, N-((1R,2S)-2-[(3aR,4S,9bR)-(4-Cyclopropyl-2,3,3a,4,5,9b-hexahydro-1H-pyrrolo[3,2-c]quinolin-1-yl)carbonyl]cyclohexyl)benzamide]
< 10 nM | O=C(N[C@@H]1CCCC[C@@H]1C(=O)N1CC[C@@H]2[C@H](c3ccccc3)Nc3ccccc3[C@@H]21)N1CCC(c2ccccc2)CC1 [Example 172, 4-Phenyl-N-((1R,2S)-2-{[(3aR,4R,9bR)-4-phenyl-2,3,3a,4,5,9b-hexahydro-1H-pyrrolo[3,2-c]quinolin-1-yl]carbonyl}cyclohexyl)piperidine-1-carboxamide]
< 10 nM | COC[C@@H]1Nc2ccccc2[C@H]2[C@@H]1CCN2C(=O)[C@H]1CCCC[C@H]1NC(=O)Nc1ccc(N2CCOCC2)nc1 [Example 289, N-((1R,2S)-2-{[(3aR,4R,9bR)-4-(Methoxymethyl)-2,3,3a,4,5,9b-hexahydro-1H-pyrrolo[3,2-c]quinolin-1-yl]carbonyl}cyclohexyl)-N′-(6-morpholin-4-ylpyridin-3-yl)urea]
< 10 nM | CC(C)NC(=O)N[C@@H]1CCCC[C@@H]1C(=O)N1CC[C@@H]2[C@H](c3ccccc3)Nc3ccccc3[C@@H]21 [Example 152, N-Isopropyl-N′-((1R,2S)-2-{[(3aR,4R,9bR)-4-phenyl-2,3,3a,4,5,9b-hexahydro-1H-pyrrolo[3,2-c]quinolin-1-yl]carbonyl}cyclohexyl)urea]
< 10 nM | O=C(N[C@@H]1CCCC[C@@H]1C(=O)N1CC[C@@H]2[C@H](c3ccccc3)Nc3ccccc3[C@@H]21)c1cnccn1 [Example 127, N-((1R,2S)-2-{[(3aR,4R,9bR)-4-Phenyl-2,3,3a,4,5,9b-hexahydro-1H-pyrrolo[3,2-c]quinolin-1-yl]carbonyl}cyclohexyl)pyrazine-2-carboxamide]
< 1 nM | COC[C@@H]1Nc2ccccc2[C@H]2[C@@H]1CCN2C(=O)[C@H]1CCCC[C@H]1NC(=O)Nc1ccc(OC)c(C#N)c1 [Example 285, N-(3-Cyano-4-methoxyphenyl)-N′-((1R,2S)-2-{[(3aR,4R,9bR)-4-(methoxymethyl)-2,3,3a,4,5,9b-hexahydro-1H-pyrrolo[3,2-c]quinolin-1-yl]carbonyl}cyclohexyl)urea]
< 10 nM | O=C(N[C@@H]1CCCC[C@@H]1C(=O)N1CC[C@@H]2[C@H](c3ccccn3)Nc3ccccc3[C@@H]21)c1ccccc1 (relative stereo) [Example 19, N-((1R,2S)-2-{[(3aR*,4R*,9bR*)-4-Pyridin-2-yl-2,3,3a,4,5,9b-hexahydro-1H-pyrrolo[3,2-c]quinolin-1-yl]carbonyl}cyclohexyl)benzamide]
< 1 nM | COC[C@@H]1Nc2ccccc2[C@H]2[C@@H]1CCN2C(=O)[C@H]1CCCC[C@H]1NC(=O)c1ccc(OC)c(C#N)c1 [Example 275, 3-Cyano-4-methoxy-N-((1R,2S)-2-{[(3aR,4R,9bR)-4-(methoxymethyl)-2,3,3a,4,5,9b-hexahydro-1H-pyrrolo[3,2-c]quinolin-1-yl]carbonyl}cyclohexyl)benzamide]
